Two compounds from patent US20130072459A1, “PHARMACEUTICAL COMPOSITION FOR THE PREVENTION OR THE TREATMENT OF NON-ALCOHOLIC FATTY LIVER DISEASE AND THE METHOD FOR PREVENTION OR TREATMENT OF NON-ALCOHOLIC FATTY LIVER DISEASE USING THE SAME” (priority 2010, published 2013) can be followed below.

For data set [1], the system named is HepG2 cells. Nature of the data set: Free fatty acid-induced intracellular fat accumulation, Nile Red staining. Format: cell-based, human. Conditions: for free fatty acid-induced fat accumulation in hepatocytes, result in words: FIG. 10; for inhibition at 1 µM: Homo sapiens, HepG2, 0.5 mM free fatty acid, 24 hours, read-out: inhibitory effects on free fatty acid-induced fat accumulation. As to the method: By a combined treatment of free fatty acid and a drug, inhibitory effects of individual drugs on intracellular fat accumulation were quantified using a triglyceride staining method. The human hepatoma cell line, HepG2 cells were cultured in a minimum essential medium (MEM) containing 10(v/v) % fetal bovine serum for 48 hours. […] For the negative control group, a MEM containing 1(v/v) % bovine serum albumin was treated with 0.1(v/v) % dimethyl sulfoxide with no addition of free fatty acid. After the culture was complete, the medium was removed and the cells were washed with a phosphate buffer. […] After the staining was complete, the supernatant was discarded and replaced with a phosphate buffer, followed by measurement of fluorescence intensities under conditions of a 488 nm excitation wavelength and a 550 nm emission wavelength. Then, in order to correct a deviation according to the cell count, a phosphate buffer containing 10 μM resazurin (Sigma) dissolved therein was added to the same well. Thereafter, before and after the reaction at 37° C. for 1 hour under light-shielded conditions, fluorescence intensities were measured using a fluorometer under conditions of a 535 nm excitation wavelength and a 580 nm emission wavelength, whereby an increase in fluorescence intensity due to resorufin reduced and formed by the intracellular mitochondrial activity was measured. Using the value of a fluorescence intensity of Nile Red corrected in terms of an increase in fluorescence intensity due to the reduction of resazurin, the experimental results were expressed as a percentage for the fat accumulation increased by a treatment with free fatty acid, as compared to the negative control group.

For data set [2], the system named is activated hepatic stellate cells. As to the kind of experiment: Expression of activity indicator proteins (TGFβ1, α-SMA) in activated hepatic stellate cells, Western blot. Type of data set: cell-based, rat (Wistar). The conditions noted are these: for 1 ng/mL TGFβ1-induced protein expression inhibition rate, TGFβ1 / 1 ng/mL TGFβ1-induced protein expression inhibition rate, α-SMA: 100 μM compound, 7 days, N = 3, corrected by β-actin; for protein expression levels of TGFβ1 and α-SMA, result in words: hTGF-β1-activated rat hepatic stellate cells. As to the method:
An inhibitory action of the compounds of the present invention on the activation of hepatic stellate cells was tested according to the following cell culture method. Male rats (Wistar rats), weighing 500 to 700 g, were anesthetized, followed by an abdominal incision, and cannulae were connected to hepatic portal veins, followed by sequential perfusion with a Hank's Balanced Salt Solution (HBSS) containing heparin and an HBSS containing type 1 collagenase. After the perfusion was complete, the liver was excised, ground with surgical scissors, and added to an HBSS containing type 1 collagenase, followed by shaking culture at 37° C. for 15 minutes. The completely ground liquid-state liver tissue was passed through gauze and centrifuged at 500 g for 10 minutes. The resulting mingled cell precipitate was washed with a phosphate buffer, followed by centrifugation at 100 g for 5 minutes, and the supernatant was collected. The supernatant was further centrifuged at 500 g for 10 minutes to obtain a precipitate to which a 9:1 (v/v) mixture of a Ficoll liquid (GE Healthcare) and a Percoll liquid (GE Healthcare) was added, followed by mixing. A phosphate buffer was gently placed on the mixed layer, followed by centrifugation at 1,400 g for 15 minutes. Then, the cell layer formed between the upper layer and the lower layer was recovered and washed once with a Dulbecco's Modified Eagle Medium (DMEM) containing 10(v/v) % fetal bovine serum. The resulting cells were added at a cell density of 3.1×10^5 cells/cm^2, the medium was exchanged with a fresh medium after 24 hours, and cultured for 7 days with exchange of the medium at intervals of 2 to 3 days. Then, the drugs were treated at specified concentrations in a medium containing 1 ng/ml of a human transforming growth factor (TGF) β1 and a medium containing no TGF β1. TGF β1 was dissolved in dimethylsulfoxide (DMSO) to a concentration 1.000-fold higher than the desired treatment concentration of the drug, 1.000-fold diluted in a medium to be a 1-fold (1×) volume, and then treated on cells. After 7 days of the drug treatment, the medium was harvested and washed with a phosphate buffer. A buffer containing a surfactant was added thereto and the cells were lysed. Then, proteins were quantified, electrophoresed on a 4-12% Bis-Tris gel (Invitrogen), and transferred to a nitrocellulose membrane. The transferred proteins were reacted with primary antibodies specific for α-smooth muscle actin (α-SMA) or TGFβ1, and then reacted with horse radish peroxidase-conjugated specific secondary antibodies. The expression level of the target protein was confirmed using a chemiluminescent liquid and corrected in terms of actin (β-actin) expression level (FIG. 9). The decrement of observed protein expression by 100 μM of individual compounds of the present invention was expressed as a percentage drug-induced decrement, based an increment of protein expression in the TGFβ1-treated positive control group relative to the negative control group to which only DMSO was added (Table 3).
On the technique in general: A western blot detects proteins with antibodies after separation by electrophoresis.

In data set [3] the test system is ob/ob mice. Nature of the data set: Plasma alanine aminotransferase in obesity animal model ob/ob mice. Type of data set: in vivo. The conditions noted are these: 4 weeks; for plasma alanine aminotransferase, result in words: ob/ob mice. As to the method:
5-week old male C57BL/6 mice (normal mouse group) and ob/ob mice (obesity mouse group) were stabilized and then divided into 6 groups according to the body weight and blood glucose level, followed by feeding with a standard diet and a drug-mixed diet. […] Therefore, in order to supply 10, 100 and 300 mg/kg which are daily target doses of tartrate of Compound 1, diets were formulated by mixing a standard diet with 0.01% by weight, 0.1% by weight and 0.3% by weight of tartrate of Compound 1 and 0.3% by weight of sitagliptin phosphate, respectively. 4 weeks after a supply of diets, animals were dissected and sera were separated. Plasma alanine aminotransferase levels were measured using a blood analyzer (Table 6).

Where [4] appears, read: standard diet with 0.3% drug (target 300 mg/kg/day).
Setting [5] is: standard diet with 0.01% drug (target 10 mg/kg/day).
Where [6] appears, read: standard diet with 0.1% drug (target 100 mg/kg/day).

With `N[C@@H](CC(=O)N1CCn2c(nnc2C(F)(F)F)C1)Cc1cc(F)c(F)cc1F` [sitagliptin phosphate, sitagliptin], in data set [1], the “free fatty acid-induced fat accumulation in hepatocytes, result in words” value is listed as “dose-dependent inhibition” and the inhibition at 1 µM is 28.7 ± 3.2%. Moreover, in data set [2], the “1 ng/mL TGFβ1-induced protein expression inhibition rate, TGFβ1” value is reported as −6 ± 51.9%; the “1 ng/mL TGFβ1-induced protein expression inhibition rate, α-SMA” value is recorded as 46 ± 7.3%; the “protein expression levels of TGFβ1 and α-SMA, result in words” value is “lowered”. Moreover, the “plasma alanine aminotransferase, result in words” value in data set [3] is “reduction”. Also, in data set [3] (setting [4]), the “ALT increase inhibition (%) relative to ob/ob mouse control group” value is on record as 15% and the “ALT increment (%) relative to normal mouse group” value turned out to be 869%.
For the compound `CC(C)(C)OC[C@@H]1C(=O)NCCN1C(=O)C[C@H](N)Cc1cc(F)c(F)cc1F` [tartrate of Compound 1, (R)-4-[(R)-3-amino-4-(2,4,5-trifluorophenyl)-butanoyl]-3-(t-butoxymethyl)piperazin-2-one], in data set [1], the “free fatty acid-induced fat accumulation in hepatocytes, result in words” value is “dose-dependent inhibition” and the inhibition at 1 µM came out at 28.7 ± 3.2%. Besides, in data set [2], the “1 ng/mL TGFβ1-induced protein expression inhibition rate, TGFβ1” value was 78 ± 17.2%; the “1 ng/mL TGFβ1-induced protein expression inhibition rate, α-SMA” value was 25 ± 1.9%; the “protein expression levels of TGFβ1 and α-SMA, result in words” value is listed as “lowered”. The “concentration dependence of protein expression decrement of TGFβ1 and α-SMA, result in words” value in data set [2] (FIG. 9) is listed as “increased with a higher concentration”. The “plasma alanine aminotransferase, result in words” value in data set [3] is “reduction”. Moreover, in data set [3] (setting [5]), the “ALT increase inhibition (%) relative to ob/ob mouse control group” value is 43% and the “ALT increment (%) relative to normal mouse group” value was 610%. Moreover, in data set [3] (setting [6]), the “ALT increase inhibition (%) relative to ob/ob mouse control group” value was 39% and the “ALT increment (%) relative to normal mouse group” value is on record as 653%. Further, in data set [3] (setting [4]), the “ALT increase inhibition (%) relative to ob/ob mouse control group” value is reported as 27% and the “ALT increment (%) relative to normal mouse group” value is listed as 757%.
